Remaining binding data for one molecule are collected here from publication PMC10507085, “Pharmacological inhibition of TBK1/IKKε blunts immunopathology in a murine model of SARS-CoV-2 infection” (Nature Communications, 2023).

Among the targets are MYLK4 (Homo sapiens, UniProt Q86YV6); CSNK1A1 (Homo sapiens, UniProt P48729); GRK1 (Homo sapiens, UniProt Q15835); CAMK2G (Homo sapiens, UniProt Q13555); PIP5K1C (Homo sapiens, UniProt O60331); SIK2 (Homo sapiens, UniProt Q9H0K1); EPHB2 (Homo sapiens, UniProt P29323); EPHA6 (Homo sapiens, UniProt Q9UF33); TRPM6 (Homo sapiens, UniProt Q9BX84); GRK4 (Homo sapiens, UniProt P32298); INSR (Homo sapiens, UniProt P06213); RIOK3 (Homo sapiens, UniProt O14730); GSK3B (Homo sapiens, UniProt P49841); EPHA7 (Homo sapiens, UniProt Q15375); ITK (Homo sapiens, UniProt Q08881); ULK1 (Homo sapiens, UniProt O75385).

Assay in all cases: biochemical
What all share (parameters): KINOMEscan competition binding, DNA-tagged kinase against immobilised ligand, qPCR read-out
Holding throughout (settings): read-out: Percent Control

The target in test [1] is T1, RSK1(Kin.Dom.1-N-terminal) (Homo sapiens, UniProt Q15418).
T1 construct: gene RPS6KA1; Kin.Dom.1 N-terminal

The target in test [2] is T2, RSK4(Kin.Dom.2-C-terminal) (Homo sapiens, UniProt Q9UK32).
T2 construct: gene RPS6KA6; Kin.Dom.2 C-terminal

The target in test [3] is T3, RSK2(Kin.Dom.1-N-terminal) (Homo sapiens, UniProt P51812).
T3 construct: gene RPS6KA3; Kin.Dom.1 N-terminal
T3 sequence (P51812 whole entry): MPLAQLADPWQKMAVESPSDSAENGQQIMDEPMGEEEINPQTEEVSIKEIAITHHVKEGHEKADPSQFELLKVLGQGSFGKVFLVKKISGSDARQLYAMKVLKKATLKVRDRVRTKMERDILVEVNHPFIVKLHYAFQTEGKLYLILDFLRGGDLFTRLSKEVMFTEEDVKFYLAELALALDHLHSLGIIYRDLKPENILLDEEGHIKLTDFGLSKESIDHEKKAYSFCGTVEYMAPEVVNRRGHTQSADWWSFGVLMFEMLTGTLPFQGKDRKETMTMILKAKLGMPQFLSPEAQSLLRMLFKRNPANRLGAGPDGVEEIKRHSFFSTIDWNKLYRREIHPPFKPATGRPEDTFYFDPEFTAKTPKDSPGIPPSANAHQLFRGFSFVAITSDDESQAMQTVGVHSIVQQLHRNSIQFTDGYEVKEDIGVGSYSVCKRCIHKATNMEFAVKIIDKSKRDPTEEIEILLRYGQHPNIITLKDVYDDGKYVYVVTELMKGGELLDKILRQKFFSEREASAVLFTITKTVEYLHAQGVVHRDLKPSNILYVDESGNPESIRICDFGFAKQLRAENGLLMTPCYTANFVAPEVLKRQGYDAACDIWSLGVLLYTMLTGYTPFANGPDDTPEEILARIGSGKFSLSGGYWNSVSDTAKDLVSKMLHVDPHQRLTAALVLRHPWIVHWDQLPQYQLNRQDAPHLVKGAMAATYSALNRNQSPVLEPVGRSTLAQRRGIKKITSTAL

Chain of ULK1 (O75385 whole entry): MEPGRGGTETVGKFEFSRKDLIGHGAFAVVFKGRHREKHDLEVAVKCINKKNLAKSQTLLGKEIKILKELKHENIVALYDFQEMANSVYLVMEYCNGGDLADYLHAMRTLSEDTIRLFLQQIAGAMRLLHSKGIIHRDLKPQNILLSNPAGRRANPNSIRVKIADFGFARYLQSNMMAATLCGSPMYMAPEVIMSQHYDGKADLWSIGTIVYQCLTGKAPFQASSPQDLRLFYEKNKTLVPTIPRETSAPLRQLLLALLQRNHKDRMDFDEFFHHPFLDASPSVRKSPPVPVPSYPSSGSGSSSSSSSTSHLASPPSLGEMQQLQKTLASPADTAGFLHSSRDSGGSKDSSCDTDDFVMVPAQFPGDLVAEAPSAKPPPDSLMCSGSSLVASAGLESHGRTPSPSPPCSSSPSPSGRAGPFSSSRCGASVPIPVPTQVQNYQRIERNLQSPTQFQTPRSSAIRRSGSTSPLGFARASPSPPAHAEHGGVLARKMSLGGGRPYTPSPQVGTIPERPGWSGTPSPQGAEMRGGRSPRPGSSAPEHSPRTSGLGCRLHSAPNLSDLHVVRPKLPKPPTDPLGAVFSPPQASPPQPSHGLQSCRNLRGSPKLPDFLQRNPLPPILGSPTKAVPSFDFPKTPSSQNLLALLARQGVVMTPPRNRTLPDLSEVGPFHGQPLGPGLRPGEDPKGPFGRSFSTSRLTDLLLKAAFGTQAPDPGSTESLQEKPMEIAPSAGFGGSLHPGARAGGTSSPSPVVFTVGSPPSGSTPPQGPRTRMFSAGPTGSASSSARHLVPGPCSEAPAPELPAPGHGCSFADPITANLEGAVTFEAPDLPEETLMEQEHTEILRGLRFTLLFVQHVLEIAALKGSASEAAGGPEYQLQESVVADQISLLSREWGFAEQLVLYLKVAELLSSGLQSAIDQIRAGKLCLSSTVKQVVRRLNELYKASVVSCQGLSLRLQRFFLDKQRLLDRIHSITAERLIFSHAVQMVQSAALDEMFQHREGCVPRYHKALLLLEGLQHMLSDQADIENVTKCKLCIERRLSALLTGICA
Chain of EPHA6 (Q9UF33 whole entry): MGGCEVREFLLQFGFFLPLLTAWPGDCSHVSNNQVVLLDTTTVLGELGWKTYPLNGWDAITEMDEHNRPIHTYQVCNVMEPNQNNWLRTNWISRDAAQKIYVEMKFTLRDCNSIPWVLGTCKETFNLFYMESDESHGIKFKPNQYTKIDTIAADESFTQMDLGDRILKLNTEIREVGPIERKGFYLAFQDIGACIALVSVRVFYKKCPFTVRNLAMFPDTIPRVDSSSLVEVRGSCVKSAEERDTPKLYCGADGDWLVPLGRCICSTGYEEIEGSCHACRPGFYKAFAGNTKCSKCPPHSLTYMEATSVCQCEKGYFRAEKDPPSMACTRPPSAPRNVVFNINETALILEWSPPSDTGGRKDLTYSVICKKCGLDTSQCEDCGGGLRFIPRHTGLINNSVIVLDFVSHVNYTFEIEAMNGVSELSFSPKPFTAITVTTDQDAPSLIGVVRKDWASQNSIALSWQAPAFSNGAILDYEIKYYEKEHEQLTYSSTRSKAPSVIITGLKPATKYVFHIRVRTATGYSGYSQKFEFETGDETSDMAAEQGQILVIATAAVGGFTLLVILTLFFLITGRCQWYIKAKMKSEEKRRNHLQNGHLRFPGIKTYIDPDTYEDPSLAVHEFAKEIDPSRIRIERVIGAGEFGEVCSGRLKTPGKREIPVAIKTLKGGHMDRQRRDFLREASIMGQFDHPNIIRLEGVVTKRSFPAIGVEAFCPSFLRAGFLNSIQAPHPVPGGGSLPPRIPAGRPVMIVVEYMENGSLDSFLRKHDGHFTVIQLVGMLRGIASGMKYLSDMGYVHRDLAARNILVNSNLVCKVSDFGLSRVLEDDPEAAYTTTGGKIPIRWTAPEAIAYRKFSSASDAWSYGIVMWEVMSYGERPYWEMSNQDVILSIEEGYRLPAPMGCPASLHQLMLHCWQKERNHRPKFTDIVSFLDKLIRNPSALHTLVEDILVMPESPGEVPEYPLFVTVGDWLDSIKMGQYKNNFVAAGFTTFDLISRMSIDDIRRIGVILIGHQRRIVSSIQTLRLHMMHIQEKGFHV
T2 sequence (Q9UK32 whole entry): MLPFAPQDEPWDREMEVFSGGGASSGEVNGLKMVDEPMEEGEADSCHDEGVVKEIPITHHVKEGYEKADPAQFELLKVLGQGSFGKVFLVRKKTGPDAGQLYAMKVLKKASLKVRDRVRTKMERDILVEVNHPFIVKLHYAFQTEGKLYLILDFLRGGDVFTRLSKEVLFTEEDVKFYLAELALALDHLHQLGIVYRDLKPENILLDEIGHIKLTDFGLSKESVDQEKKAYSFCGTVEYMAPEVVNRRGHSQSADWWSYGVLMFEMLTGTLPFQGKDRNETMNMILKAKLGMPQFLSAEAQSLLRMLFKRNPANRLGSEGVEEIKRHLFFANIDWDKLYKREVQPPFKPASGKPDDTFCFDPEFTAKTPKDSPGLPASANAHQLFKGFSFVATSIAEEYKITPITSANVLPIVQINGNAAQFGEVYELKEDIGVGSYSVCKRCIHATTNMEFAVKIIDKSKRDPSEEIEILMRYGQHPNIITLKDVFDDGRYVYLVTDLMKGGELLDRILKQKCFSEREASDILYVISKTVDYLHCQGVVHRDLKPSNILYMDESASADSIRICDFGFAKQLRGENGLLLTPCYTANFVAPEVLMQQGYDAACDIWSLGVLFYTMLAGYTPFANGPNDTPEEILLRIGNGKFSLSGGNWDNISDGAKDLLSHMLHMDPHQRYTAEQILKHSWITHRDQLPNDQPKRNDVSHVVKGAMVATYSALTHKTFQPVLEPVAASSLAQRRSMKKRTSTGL
Chain of ITK (Q08881 whole entry): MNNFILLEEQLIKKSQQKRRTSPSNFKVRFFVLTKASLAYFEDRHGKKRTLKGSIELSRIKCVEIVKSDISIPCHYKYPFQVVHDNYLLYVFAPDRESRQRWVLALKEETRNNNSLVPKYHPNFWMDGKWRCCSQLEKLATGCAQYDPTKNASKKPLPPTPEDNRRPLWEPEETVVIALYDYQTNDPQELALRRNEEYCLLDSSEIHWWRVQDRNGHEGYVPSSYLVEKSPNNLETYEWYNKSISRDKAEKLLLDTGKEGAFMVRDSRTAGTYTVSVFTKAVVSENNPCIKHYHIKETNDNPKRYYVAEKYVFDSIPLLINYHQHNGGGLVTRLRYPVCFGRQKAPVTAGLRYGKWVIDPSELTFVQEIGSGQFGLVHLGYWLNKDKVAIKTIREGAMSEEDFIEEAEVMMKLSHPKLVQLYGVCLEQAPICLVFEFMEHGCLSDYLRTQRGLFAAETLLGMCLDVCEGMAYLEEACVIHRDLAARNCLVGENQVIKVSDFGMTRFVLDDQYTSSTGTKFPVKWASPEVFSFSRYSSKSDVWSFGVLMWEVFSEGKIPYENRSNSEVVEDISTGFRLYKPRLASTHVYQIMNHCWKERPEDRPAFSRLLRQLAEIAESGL
Chain of MYLK4 (Q86YV6 whole entry): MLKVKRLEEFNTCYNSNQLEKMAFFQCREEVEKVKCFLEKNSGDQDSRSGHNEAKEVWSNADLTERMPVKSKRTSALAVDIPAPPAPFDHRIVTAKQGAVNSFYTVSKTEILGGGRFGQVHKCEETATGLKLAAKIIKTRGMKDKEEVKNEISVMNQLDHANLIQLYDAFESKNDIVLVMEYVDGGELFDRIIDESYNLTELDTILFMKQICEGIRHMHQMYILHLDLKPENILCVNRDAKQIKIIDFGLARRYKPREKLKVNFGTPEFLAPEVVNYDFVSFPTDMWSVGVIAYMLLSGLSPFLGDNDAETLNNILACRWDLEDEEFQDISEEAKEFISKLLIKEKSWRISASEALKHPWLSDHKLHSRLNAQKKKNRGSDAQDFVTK
Chain of GSK3B (P49841 whole entry): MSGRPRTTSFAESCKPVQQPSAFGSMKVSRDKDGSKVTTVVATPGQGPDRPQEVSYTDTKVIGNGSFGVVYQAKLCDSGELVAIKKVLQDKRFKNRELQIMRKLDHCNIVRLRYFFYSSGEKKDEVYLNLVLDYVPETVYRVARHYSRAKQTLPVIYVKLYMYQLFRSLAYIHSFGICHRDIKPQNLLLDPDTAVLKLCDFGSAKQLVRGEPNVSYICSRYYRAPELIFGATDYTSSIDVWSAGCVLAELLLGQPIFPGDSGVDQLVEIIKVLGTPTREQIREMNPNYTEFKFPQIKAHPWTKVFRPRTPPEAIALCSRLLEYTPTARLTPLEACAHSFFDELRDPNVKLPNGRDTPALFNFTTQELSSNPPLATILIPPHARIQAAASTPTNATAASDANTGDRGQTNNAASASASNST

Turning to `Oc1ccc(C2=Cc3ccc(O)cc3OC2)cc1` [compound 1, idronoxil], the remaining binding at 10 µM on MYLK4 is 26%; on CSNK1A1, 86%; at GRK1, 100%; on CAMK2G, 85%; on PIP5K1C, 25%; on SIK2 it was 87%. The remaining binding at 10 µM was determined as 86% at EPHB2; 99% at EPHA6; 71% in [1]; 88% on TRPM6; 76% in test [2]; 68% on GRK4. In addition, the remaining binding at 10 µM on INSR is 71%; on RIOK3, 100%; at GSK3B, 92%; at EPHA7, 96%; in [3] it was 57%; at ITK, 97%. For the same molecule, the remaining binding at 10 µM on ULK1 stood at 89%.
